# Data from ChEMBL document CHEMBL3885861, “Open TG-GATES”.
# Species on record: Rattus norvegicus
# Assay: Open TG-GATES - Regimen: Single
# Format: toxicity, organism-based, Sprague-Dawley
# Set-up: regimen Single, gender Male, age 6 weeks
# Details: in vivo, po, 50 mg/kg, route gavage, dose level Middle; for APTT / Bas / Eos / Fbg / Hb / Ht / Lym / MCH / MCHC / MCV / Mono / Neu / PT / Plat / RBC / Ret / WBC: tissue Blood; for KIDNEY_L / KIDNEY_R / KIDNEY_TOTAL: tissue Kidney; for LIVER: tissue Liver; for A/G / ALP / ALT / AST / BUN / CRE / Ca / Cl / DBIL / GLC / IP / K / LDH / Na / PL / RALB / TBIL / TC / TG / TP / gamma-GTP: tissue Plasma
structure (smiles),measurement,setting,value
CC1=C(CC(=O)O)c2cc(F)ccc2/C1=C\c1ccc([S+](C)[O-])cc1 (configuration not stated),TERMINAL_BW,3 h,204.9 g
same,APTT,3 h,16.8 s
same,Bas,3 h,0%
same,Eos,3 h,1%
same,Fbg,3 h,266 mg/dL
same,Hb,3 h,13.2 g/dL
same,Ht,3 h,40.3%
same,Lym,3 h,77.6%
same,MCH,3 h,21.2 pg
same,MCHC,3 h,32.7%
same,MCV,3 h,65 fL
same,Mono,3 h,2.6%
same,Neu,3 h,18.4%
same,PT,3 h,14.1 s
same,Plat,3 h,130.3 x10_4/uL
same,RBC,3 h,620.8 x10_4/ul
same,Ret,3 h,8.7%
same,WBC,3 h,77.3 x10_2/uL
same,KIDNEY_L,3 h,0.9 g
same,KIDNEY_R,3 h,0.9 g
same,KIDNEY_TOTAL,3 h,1.8 g
same,LIVER,3 h,9 g
same,A/G,3 h,0.9
same,ALP,3 h,1442.8 IU/L
same,ALT,3 h,43.4 IU/L
same,AST,3 h,76.2 IU/L
same,BUN,3 h,11.4 mg/dL
same,CRE,3 h,0.2 mg/dL
same,Ca,3 h,11 mg/dL
same,Cl,3 h,104.8 meq/L
same,DBIL,3 h,0.01 mg/dL
same,GLC,3 h,166.8 mg/dL
same,IP,3 h,8.6 mg/dL
same,K,3 h,3.9 meq/L
same,LDH,3 h,81.4 IU/L
same,Na,3 h,141.6 meq/L
same,PL,3 h,140.4 mg/dL
same,RALB,3 h,2.5 g/dL
same,TBIL,3 h,0.046 mg/dL
same,TC,3 h,74.6 mg/dL
same,TG,3 h,58.8 mg/dL
same,TP,3 h,5.3 g/dL
same,gamma-GTP,3 h,1.2 IU/L
same,TERMINAL_BW,6 h,201.8 g
same,APTT,6 h,15.7 s
same,Bas,6 h,0%
same,Eos,6 h,0.8%
same,Fbg,6 h,289.4 mg/dL
same,Hb,6 h,13.7 g/dL
same,Ht,6 h,42.1%
same,Lym,6 h,78.4%
same,MCH,6 h,21.1 pg
same,MCHC,6 h,32.6%
same,MCV,6 h,64.6 fL
same,Mono,6 h,3%
same,Neu,6 h,17.2%
same,PT,6 h,13.8 s
same,Plat,6 h,113.6 x10_4/uL
same,RBC,6 h,652.4 x10_4/ul
same,Ret,6 h,7.8%
same,WBC,6 h,73.5 x10_2/uL
same,KIDNEY_L,6 h,0.9 g
same,KIDNEY_R,6 h,0.9 g
same,KIDNEY_TOTAL,6 h,1.9 g
same,LIVER,6 h,8.4 g
same,A/G,6 h,0.9
same,ALP,6 h,1437 IU/L
same,ALT,6 h,44.4 IU/L
same,AST,6 h,69.8 IU/L
same,BUN,6 h,10.8 mg/dL
same,CRE,6 h,0.2 mg/dL
same,Ca,6 h,11 mg/dL
same,Cl,6 h,106 meq/L
same,DBIL,6 h,0.01 mg/dL
same,GLC,6 h,172.4 mg/dL
same,IP,6 h,9.4 mg/dL
same,K,6 h,4.3 meq/L
same,LDH,6 h,69.6 IU/L
same,Na,6 h,141 meq/L
same,PL,6 h,135.6 mg/dL
same,RALB,6 h,2.6 g/dL
same,TBIL,6 h,0.044 mg/dL
same,TC,6 h,70.8 mg/dL
same,TG,6 h,47.8 mg/dL
same,TP,6 h,5.3 g/dL
same,gamma-GTP,6 h,1 IU/L
same,TERMINAL_BW,9 h,202.2 g
same,APTT,9 h,16.8 s
same,Bas,9 h,0%
same,Eos,9 h,0.8%
same,Fbg,9 h,291.6 mg/dL
same,Hb,9 h,13.5 g/dL
same,Ht,9 h,41.5%
same,Lym,9 h,79.4%
same,MCH,9 h,20.6 pg
same,MCHC,9 h,32.6%
same,MCV,9 h,63.2 fL
same,Mono,9 h,2.6%
same,Neu,9 h,16.8%
same,PT,9 h,14 s
same,Plat,9 h,117.4 x10_4/uL
same,RBC,9 h,656.4 x10_4/ul
same,Ret,9 h,7.8%
same,WBC,9 h,67.5 x10_2/uL
same,KIDNEY_L,9 h,0.9 g
same,KIDNEY_R,9 h,0.9 g
same,KIDNEY_TOTAL,9 h,1.9 g
same,LIVER,9 h,8.2 g
same,A/G,9 h,0.9
same,ALP,9 h,1341.4 IU/L
same,ALT,9 h,42.2 IU/L
same,AST,9 h,67.8 IU/L
same,BUN,9 h,11.2 mg/dL
same,CRE,9 h,0.2 mg/dL
same,Ca,9 h,10.8 mg/dL
same,Cl,9 h,106.6 meq/L
same,DBIL,9 h,0.01 mg/dL
same,GLC,9 h,177.6 mg/dL
same,IP,9 h,9.9 mg/dL
same,K,9 h,4.4 meq/L
same,LDH,9 h,65.6 IU/L
same,Na,9 h,142 meq/L
same,PL,9 h,135 mg/dL
same,RALB,9 h,2.6 g/dL
same,TBIL,9 h,0.04 mg/dL
same,TC,9 h,71.6 mg/dL
same,TG,9 h,38 mg/dL
same,TP,9 h,5.3 g/dL
same,gamma-GTP,9 h,1.2 IU/L
same,TERMINAL_BW,24 h,210.3 g
same,APTT,24 h,16.1 s
same,Bas,24 h,0%
same,Eos,24 h,0.6%
same,Fbg,24 h,354.6 mg/dL
same,Hb,24 h,13.7 g/dL
same,Ht,24 h,42.2%
same,Lym,24 h,62%
same,MCH,24 h,21 pg
same,MCHC,24 h,32.5%
same,MCV,24 h,64.8 fL
same,Mono,24 h,3.2%
same,Neu,24 h,33.8%
same,PT,24 h,13.5 s
same,Plat,24 h,133.9 x10_4/uL
same,RBC,24 h,653.2 x10_4/ul
same,Ret,24 h,7.9%
same,WBC,24 h,115.7 x10_2/uL
same,KIDNEY_L,24 h,0.9 g
same,KIDNEY_R,24 h,0.9 g
same,KIDNEY_TOTAL,24 h,1.9 g
same,LIVER,24 h,9.7 g
same,A/G,24 h,1
same,ALP,24 h,1280.2 IU/L
same,ALT,24 h,43 IU/L
same,AST,24 h,67.8 IU/L
same,BUN,24 h,14.6 mg/dL
same,CRE,24 h,0.2 mg/dL
same,Ca,24 h,11 mg/dL
same,Cl,24 h,103.4 meq/L
same,DBIL,24 h,0.01 mg/dL
same,GLC,24 h,189.6 mg/dL
same,IP,24 h,7.9 mg/dL
same,K,24 h,4 meq/L
same,LDH,24 h,86.2 IU/L
same,Na,24 h,141 meq/L
same,PL,24 h,141.8 mg/dL
same,RALB,24 h,2.5 g/dL
same,TBIL,24 h,0.024 mg/dL
same,TC,24 h,78.4 mg/dL
same,TG,24 h,88.4 mg/dL
same,TP,24 h,5.2 g/dL
same,gamma-GTP,24 h,1 IU/L
